The structures appear in SMILES notation. The source made the active and inactive calls. The calls are words filed in the database; no cut-off is given here.

The first assay concerns Gerbillinae. Kind of assay: %Protection against transient global ischemia in adult Mongolian gerbil at dose 10 mg/kg by ip administration tested against 10. The assay is classed as functional. Particulars: route intraperitoneal.
With `NS(=O)(=O)c1cccc2c1c([N+](=O)[O-])cc1nc(O)c(O)nc12` [NBQX], the Protection was found to be 40%.

Another assay relates to Gerbillinae. Kind of assay: %Protection against transient global ischemia in adult Mongolian gerbil at dose 10 mg/Kg by ip administration tested against 10.
Conditions: not given
The assay is classed as functional.
`O=P(O)(O)c1cc2cc(Cl)c(Cl)cc2nc1O` showed a Protection of 40%.

The subject of another assay is Gerbillinae. Kind of assay: %Protection against transient global ischemia in adult Mongolian gerbil at dose 30 mg/Kg by ip administration tested against 6.
Conditions: not given
The assay is classed as functional.
`O=P(O)(O)c1cc2cc(Cl)c(Cl)cc2nc1O` returned a Protection of 100%.

The target in the next assay is Glutamate receptor ionotropic, kainate. Kind of assay: Antagonistic activity against rat ionotropic glutamate receptor ionotropic kainate in xenopus oocytes. Particulars: oocyte. The assay is classed as functional, cell-based.
Usually IC50 stands for the concentration at which inhibition is half-maximal. `OB(O)c1cc2c(Cl)cc(Cl)cc2nc1O`: the concentration for half-maximal inhibition (IC50) is > 100 µM.
The same measure, in the same setting: the same measure for `O=c1[nH]c2cc(-n3ccnc3)c([N+](=O)[O-])cc2[nH]c1=O` [YM-90K]: 0.3 µM.
As to `O=[N+]([O-])c1ccc2cc(-c3nnc(O)o3)c(O)nc2c1`, the half-inhibitory concentration (IC50) is > 100 µM.
Regarding `O=[N+]([O-])c1cc2cc(NS(=O)(=O)C(F)(F)F)c(O)nc2cc1[N+](=O)[O-]`, half-maximal inhibition (IC50) was put at 0.16 µM.
Still for that read-out and setting: the result for `CCOP(=O)(O)c1cc2cc(Cl)c(Cl)cc2nc1O` reads 15 µM; that for `O=C(O)CSc1cc2ccc([N+](=O)[O-])cc2nc1O`, 5 µM; that for `NC(=O)c1cc2ccc([N+](=O)[O-])cc2nc1O`, > 300 µM.
Still for that read-out and setting: the result for `O=P(O)(O)c1cc2cc(F)c(F)cc2nc1O` reads 65 µM; that for `O=c1[nH]c2cc([N+](=O)[O-])ccc2cc1-c1cc(O)n[nH]1`, > 30 µM.
With `O=c1[nH]c2cc(Cl)c(Cl)cc2cc1P(=O)(O)O`, half-maximal inhibition (IC50) was put at 2.1 µM.
Same read-out and setting: the result for `O=[N+]([O-])c1ccc2cc(-c3nn[nH]n3)c(O)nc2c1` reads 3 µM; that for `O=C(O)c1cc2ccc([N+](=O)[O-])cc2nc1O`, 1.3 µM.
As to `O=[N+]([O-])c1cc2cc(P(=O)(O)O)c(O)nc2cc1[N+](=O)[O-]`, inhibition was half-maximal at 0.15 µM (IC50).
On the same count and under the same terms, the result for `O=C(Nc1nn[nH]n1)c1cc2ccc([N+](=O)[O-])cc2nc1O` reads 100 µM; that for `O=[N+]([O-])c1cc2cc(-c3nn[nH]n3)c(O)nc2cc1[N+](=O)[O-]`, 0.6 µM.
The same measure, in the same setting: the result for `O=P(O)(OCC1CCCC1)c1cc2cc(Cl)c(Cl)cc2nc1O` reads 15 µM.
Still for that read-out and setting: the result for `CP(=O)(O)c1cc2c(Cl)cc(Cl)cc2nc1O` reads > 100 µM.
`O=[N+]([O-])c1ccc2cc(P(=O)(O)O)c(O)nc2c1` displayed an IC50 of 1.4 µM.
`O=P(O)(O)c1cc2c(Cl)cc(Cl)cc2nc1O` gave an IC50 of 4 µM.
The same measure, in the same setting: the result for `O=C(O)c1cc2cc([N+](=O)[O-])c([N+](=O)[O-])cc2nc1O` reads 0.3 µM; that for `O=C(O)c1cc2cc(Cl)c(Cl)cc2nc1O`, 10 µM.
`O=C(NO)c1cc2ccc([N+](=O)[O-])cc2nc1O` showed a 50% inhibitory concentration (IC50) of 10 µM.
Still for that read-out and setting: the result for `O=C(O)c1cc2c(Cl)cc(Cl)cc2nc1O` reads 8 µM.

Tested on in another assay: not listed separately
Kind of assay: Selectivity between AMPA/kainate receptor and NMDA/glycine receptor. Further details: reference not given here.
Conditions: not given
Regarding `O=c1[nH]c2cc(-n3ccnc3)c([N+](=O)[O-])cc2[nH]c1=O` [YM-90K], the Selectivity was 102.
On the same count and under the same terms, the result for `O=[N+]([O-])c1cc2cc(NS(=O)(=O)C(F)(F)F)c(O)nc2cc1[N+](=O)[O-]` reads 1; that for `CCOP(=O)(O)c1cc2cc(Cl)c(Cl)cc2nc1O`, 2.6; that for `O=C(O)CSc1cc2ccc([N+](=O)[O-])cc2nc1O`, > 20.
Molecule `O=P(O)(O)c1cc2cc(F)c(F)cc2nc1O` showed a Selectivity of 1.71.
`O=[N+]([O-])c1ccc2cc(-c3nn[nH]n3)c(O)nc2c1`: the Selectivity was > 5.
The molecule `O=C(O)c1cc2ccc([N+](=O)[O-])cc2nc1O` had a Selectivity of 5.
`O=[N+]([O-])c1cc2cc(P(=O)(O)O)c(O)nc2cc1[N+](=O)[O-]` returned a Selectivity of 343.
Still for that read-out and setting: the same measure for `O=C(Nc1nn[nH]n1)c1cc2ccc([N+](=O)[O-])cc2nc1O`: > 0.16; for `O=[N+]([O-])c1cc2cc(-c3nn[nH]n3)c(O)nc2cc1[N+](=O)[O-]`: 33; for `O=P(O)(OCC1CCCC1)c1cc2cc(Cl)c(Cl)cc2nc1O`: 5.
For `CP(=O)(O)c1cc2c(Cl)cc(Cl)cc2nc1O`, the Selectivity was < 0.5.
Still for that read-out and setting: the result for `O=[N+]([O-])c1ccc2cc(P(=O)(O)O)c(O)nc2c1` reads 41.
Still for that read-out and setting: the same measure for `O=P(O)(O)c1cc2c(Cl)cc(Cl)cc2nc1O`: 7.5; for `O=P(O)(O)c1cc2cc(Cl)c(Cl)cc2nc1O`: 39.8; for `O=C(O)c1cc2cc([N+](=O)[O-])c([N+](=O)[O-])cc2nc1O`: 1.9.
In turn, `O=C(O)c1cc2cc(Cl)c(Cl)cc2nc1O` gave a Selectivity of 0.08.
Still for that read-out and setting: the same measure for `O=C(NO)c1cc2ccc([N+](=O)[O-])cc2nc1O`: > 10.
Same read-out and setting: the same measure for `O=C(O)c1cc2c(Cl)cc(Cl)cc2nc1O`: 0.08.

For the next assay, the target named is Glutamate NMDA receptor. Kind of assay: Antagonistic activity against N-methyl-D-aspartate glutamate receptor 1 in Xenopus oocytes. Format: functional, cell-based. As to conditions: oocyte.
Consider `OB(O)c1cc2c(Cl)cc(Cl)cc2nc1O`, for which the IC50 is > 300 µM.
On the same count and under the same terms, the same measure for `O=c1[nH]c2cc(-n3ccnc3)c([N+](=O)[O-])cc2[nH]c1=O` [YM-90K]: 30.5 µM; for `O=[N+]([O-])c1ccc2cc(-c3nnc(O)o3)c(O)nc2c1`: > 100 µM; for `O=[N+]([O-])c1cc2cc(NS(=O)(=O)C(F)(F)F)c(O)nc2cc1[N+](=O)[O-]`: 0.16 µM.
On to `CCOP(=O)(O)c1cc2cc(Cl)c(Cl)cc2nc1O`, for which half-maximal inhibition (IC50) was put at 40 µM.
On the same count and under the same terms, the same measure for `NS(=O)(=O)c1cccc2c1c([N+](=O)[O-])cc1nc(O)c(O)nc12` [NBQX]: 255 µM; for `O=C(O)CSc1cc2ccc([N+](=O)[O-])cc2nc1O`: > 100 µM.
The same measure, in the same setting: the same measure for `NC(=O)c1cc2ccc([N+](=O)[O-])cc2nc1O`: > 300 µM; for `O=P(O)(O)c1cc2cc(F)c(F)cc2nc1O`: 111 µM; for `O=c1[nH]c2cc([N+](=O)[O-])ccc2cc1-c1cc(O)n[nH]1`: > 100 µM.
On to `O=c1[nH]c2cc(Cl)c(Cl)cc2cc1P(=O)(O)O`, for which half-maximal inhibition (IC50) required 83.5 µM.
Same read-out and setting: the result for `O=[N+]([O-])c1ccc2cc(-c3nn[nH]n3)c(O)nc2c1` reads > 16 µM; that for `O=C(O)c1cc2ccc([N+](=O)[O-])cc2nc1O`, 6.5 µM.
Same read-out and setting: the result for `O=[N+]([O-])c1cc2cc(P(=O)(O)O)c(O)nc2cc1[N+](=O)[O-]` reads 51.5 µM; that for `O=C(Nc1nn[nH]n1)c1cc2ccc([N+](=O)[O-])cc2nc1O`, > 16 µM; that for `O=[N+]([O-])c1cc2cc(-c3nn[nH]n3)c(O)nc2cc1[N+](=O)[O-]`, 20 µM.
As to `O=P(O)(OCC1CCCC1)c1cc2cc(Cl)c(Cl)cc2nc1O`, the IC50 was 74 µM.
`CP(=O)(O)c1cc2c(Cl)cc(Cl)cc2nc1O`: the IC50 came out at 51 µM.
Molecule `O=[N+]([O-])c1ccc2cc(P(=O)(O)O)c(O)nc2c1` displayed an IC50 of 57 µM.
Still for that read-out and setting: the same measure for `O=P(O)(O)c1cc2c(Cl)cc(Cl)cc2nc1O`: 30 µM; for `O=C(O)c1cc2cc([N+](=O)[O-])c([N+](=O)[O-])cc2nc1O`: 0.57 µM; for `O=C(O)c1cc2cc(Cl)c(Cl)cc2nc1O`: 0.81 µM.
Consider `O=C(NO)c1cc2ccc([N+](=O)[O-])cc2nc1O`, for which the IC50 was > 100 µM.
The same measure, in the same setting: the result for `O=C(O)c1cc2c(Cl)cc(Cl)cc2nc1O` reads 0.65 µM.

A further assay has as its target AMPA receptor (Rattus norvegicus). Kind of assay: Inhibitory activity against [3H]AMPA binding to rat cortical membranes.
Conditions: not given
`O=[N+]([O-])c1cc2cc(NS(=O)(=O)C(F)(F)F)c(O)nc2cc1[N+](=O)[O-]` registered a 50% inhibitory concentration (IC50) of 0.09 µM.
In turn, `O=c1[nH]c2cc(Cl)c(Cl)cc2cc1P(=O)(O)O` returned an IC50 of 0.9 µM.
`O=P(O)(O)c1cc2c(Cl)cc(Cl)cc2nc1O`: the IC50 was 3.5 µM.
On the same count and under the same terms, the result for `O=C(O)c1cc2cc([N+](=O)[O-])c([N+](=O)[O-])cc2nc1O` reads 0.15 µM.

The next assay concerns Mus musculus. Kind of assay: Effective dose of a compound to […] 50% audiogenic seizures in DBA/2 mice when administered by po (mg/kg); Not active. Format: functional, organism-based.
Conditions: not given
In general, ED50 refers to the dose at which the effect has come halfway, by size or by number of responders. As to `NS(=O)(=O)c1cccc2c1c([N+](=O)[O-])cc1nc(O)c(O)nc12` [NBQX], the ED50 entry is “inactive”.

For the next assay, the system named is Mus musculus. Kind of assay: Effective dose of a compound to […] 50% audiogenic seizures in DBA/2 mice when administered by ip (mg/Kg). The assay is classed as functional.
Conditions: not given
Regarding `O=P(O)(O)c1cc2c(Cl)cc(Cl)cc2nc1O`, the ED50 is > 50 mg/kg.

Another assay has as its system Mus musculus. Kind of assay: Effective dose required to protect 50% of DBA/2 mice from audiogenic seizures, after po administration. Format: functional.
Conditions: not given
In turn, `O=P(O)(O)c1cc2cc(Cl)c(Cl)cc2nc1O` came in with an ED50 of 45 mg/kg.

The next assay concerns Mus musculus. Kind of assay: Effective dose required to protect 50% of DBA/2 mice from audiogenic seizures, after ip administration.
Conditions: not given
Format: functional.
`O=[N+]([O-])c1cc2cc(NS(=O)(=O)C(F)(F)F)c(O)nc2cc1[N+](=O)[O-]`: the ED50 is > 50 mg/kg.
Same read-out and setting: the same measure for `NS(=O)(=O)c1cccc2c1c([N+](=O)[O-])cc1nc(O)c(O)nc12` [NBQX]: 8 mg/kg; for `O=P(O)(O)c1cc2cc(Cl)c(Cl)cc2nc1O`: 19 mg/kg; for `O=C(O)c1cc2cc([N+](=O)[O-])c([N+](=O)[O-])cc2nc1O`: > 50 mg/kg.

Another assay relates to Gerbillinae. Kind of assay: %Protection against transient global ischemia in adult Mongolian gerbil at dose 30 mg/kg by ip administration tested against 6. The assay is classed as functional. As to conditions: route intraperitoneal.
With `NS(=O)(=O)c1cccc2c1c([N+](=O)[O-])cc1nc(O)c(O)nc12` [NBQX], the Protection was 50%.

For the next assay, the target named is Glutamate NMDA receptor. Kind of assay: Inhibitory activity against [3H]glycine binding site of N-methyl-D-aspartate glutamate receptor 1 in rat cortical membranes.
Conditions: not given
The assay is classed as cell membranes, Membrane.
For `O=[N+]([O-])c1cc2cc(NS(=O)(=O)C(F)(F)F)c(O)nc2cc1[N+](=O)[O-]`, the IC50 came out at 1.38 µM.
Still for that read-out and setting: the result for `NS(=O)(=O)c1cccc2c1c([N+](=O)[O-])cc1nc(O)c(O)nc12` [NBQX] reads > 500 µM.
In the case of `O=c1[nH]c2cc(Cl)c(Cl)cc2cc1P(=O)(O)O`, the IC50 amounted to 111 µM.
The same measure, in the same setting: the result for `O=P(O)(O)c1cc2c(Cl)cc(Cl)cc2nc1O` reads 5.1 µM.
Still for that read-out and setting: the result for `O=C(O)c1cc2cc([N+](=O)[O-])c([N+](=O)[O-])cc2nc1O` reads 1.8 µM.

(Values after ChEMBL document CHEMBL1129678, “Structure-activity relationships in a series of 2(1H)-quinolones bearing different acidic function in the 3-position: 6,7-dichloro-2(1H)-oxoquinoline-3-phosphonic acid, a new potent and selective AMPA/kainate antagonist with neuroprotective properties” (J Med Chem, 1996).)
